Measured values published in PubChem BioAssay (NCI).
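Interpolation was linear, between the two tested concentrations surrounding the appropriate level; five concentrations were tested over 48 hours in 96-well plates. TGI is the concentration that stops growth completely.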

Each compound was assayed on MOLT-4 leukemia (assay: NCI anticancer screen, dose series, 48 h).

SMILES	TGI
N#Cc1ccccc1NC(=O)/C(=N\Nc1ccc([N+](=O)[O-])cc1)C1C(=O)NC(=O)NC1=O	> 100 µM
CCCN=Cc1c(O)c(O)c(C(C)C)c2cc(C)c(-c3c(C)cc4c(C(C)C)c(O)c(O)c(C=NCCC)c4c3O)c(O)c12	> 70.1 µM

The compounds below were run on NCI-H226 lung (assay: NCI anticancer screen, dose series, 48 h).

SMILES	TGI
O=C(c1nc2ccc(Cl)cc2[nH]c1=O)C(O)c1ccccc1 (stereo unspecified)	> 100 µM
CCCN=Cc1c(O)c(O)c(C(C)C)c2cc(C)c(-c3c(C)cc4c(C(C)C)c(O)c(O)c(C=NCCC)c4c3O)c(O)c12	47.8 µM

Each compound was assayed on NCI-H23 lung (assay: NCI anticancer screen, dose series, 48 h).

SMILES	TGI
COC1=C(OC)C(O)(c2ccccc2)C1=O (stereo unspecified)	> 100 µM
O=C(c1nc2ccc(Cl)cc2[nH]c1=O)C(O)c1ccccc1 (stereo unspecified)	> 100 µM
c1ccc(C2(c3ccccc3)SSC3(S2)C2CC4CC(C2)CC3C4)cc1 (stereo unspecified)	> 100 µM
N#Cc1ccccc1NC(=O)/C(=N\Nc1ccc([N+](=O)[O-])cc1)C1C(=O)NC(=O)NC1=O	> 100 µM
CCCN=Cc1c(O)c(O)c(C(C)C)c2cc(C)c(-c3c(C)cc4c(C(C)C)c(O)c(O)c(C=NCCC)c4c3O)c(O)c12	> 81.9 µM

What follows are compounds tested on NCI-H460 lung (assay: NCI anticancer screen, dose series, 48 h).

SMILES	TGI
COC1=C(OC)C(O)(c2ccccc2)C1=O (stereo unspecified)	> 100 µM
O=C(c1nc2ccc(Cl)cc2[nH]c1=O)C(O)c1ccccc1 (stereo unspecified)	> 100 µM
c1ccc(C2(c3ccccc3)SSC3(S2)C2CC4CC(C2)CC3C4)cc1 (stereo unspecified)	> 100 µM
N#Cc1ccccc1NC(=O)/C(=N\Nc1ccc([N+](=O)[O-])cc1)C1C(=O)NC(=O)NC1=O	> 100 µM
CCCN=Cc1c(O)c(O)c(C(C)C)c2cc(C)c(-c3c(C)cc4c(C(C)C)c(O)c(O)c(C=NCCC)c4c3O)c(O)c12	> 61.1 µM

Each compound was assayed on NCI-H522 lung (assay: NCI anticancer screen, dose series, 48 h).

SMILES	TGI
COC1=C(OC)C(O)(c2ccccc2)C1=O (stereo unspecified)	> 100 µM
O=C(c1nc2ccc(Cl)cc2[nH]c1=O)C(O)c1ccccc1 (stereo unspecified)	> 100 µM
N#Cc1ccccc1NC(=O)/C(=N\Nc1ccc([N+](=O)[O-])cc1)C1C(=O)NC(=O)NC1=O	> 100 µM
CCCN=Cc1c(O)c(O)c(C(C)C)c2cc(C)c(-c3c(C)cc4c(C(C)C)c(O)c(O)c(C=NCCC)c4c3O)c(O)c12	5.73 µM

The compounds below were run on NCI/ADR-RES ovarian (assay: NCI anticancer screen, dose series, 48 h).

SMILES	TGI
CCCN=Cc1c(O)c(O)c(C(C)C)c2cc(C)c(-c3c(C)cc4c(C(C)C)c(O)c(O)c(C=NCCC)c4c3O)c(O)c12	> 100 µM

What follows are compounds tested on OVCAR-3 ovarian (assay: NCI anticancer screen, dose series, 48 h).

SMILES	TGI
O=C(c1nc2ccc(Cl)cc2[nH]c1=O)C(O)c1ccccc1 (stereo unspecified)	> 100 µM
N#Cc1ccccc1NC(=O)/C(=N\Nc1ccc([N+](=O)[O-])cc1)C1C(=O)NC(=O)NC1=O	> 100 µM
CCCN=Cc1c(O)c(O)c(C(C)C)c2cc(C)c(-c3c(C)cc4c(C(C)C)c(O)c(O)c(C=NCCC)c4c3O)c(O)c12	> 24.4 µM

What follows are compounds tested on OVCAR-4 ovarian (assay: NCI anticancer screen, dose series, 48 h).

SMILES	TGI
O=C(c1nc2ccc(Cl)cc2[nH]c1=O)C(O)c1ccccc1 (stereo unspecified)	> 100 µM
c1ccc(C2(c3ccccc3)SSC3(S2)C2CC4CC(C2)CC3C4)cc1 (stereo unspecified)	> 100 µM
N#Cc1ccccc1NC(=O)/C(=N\Nc1ccc([N+](=O)[O-])cc1)C1C(=O)NC(=O)NC1=O	> 100 µM
CCCN=Cc1c(O)c(O)c(C(C)C)c2cc(C)c(-c3c(C)cc4c(C(C)C)c(O)c(O)c(C=NCCC)c4c3O)c(O)c12	> 100 µM

These compounds were tested on OVCAR-5 ovarian (assay: NCI anticancer screen, dose series, 48 h).

SMILES	TGI
COC1=C(OC)C(O)(c2ccccc2)C1=O (stereo unspecified)	> 100 µM
O=C(c1nc2ccc(Cl)cc2[nH]c1=O)C(O)c1ccccc1 (stereo unspecified)	> 100 µM
c1ccc(C2(c3ccccc3)SSC3(S2)C2CC4CC(C2)CC3C4)cc1 (stereo unspecified)	> 100 µM
N#Cc1ccccc1NC(=O)/C(=N\Nc1ccc([N+](=O)[O-])cc1)C1C(=O)NC(=O)NC1=O	> 100 µM
CCCN=Cc1c(O)c(O)c(C(C)C)c2cc(C)c(-c3c(C)cc4c(C(C)C)c(O)c(O)c(C=NCCC)c4c3O)c(O)c12	> 50.3 µM

What follows are compounds tested on OVCAR-8 ovarian (assay: NCI anticancer screen, dose series, 48 h).

SMILES	TGI
COC1=C(OC)C(O)(c2ccccc2)C1=O (stereo unspecified)	> 100 µM
O=C(c1nc2ccc(Cl)cc2[nH]c1=O)C(O)c1ccccc1 (stereo unspecified)	> 100 µM
c1ccc(C2(c3ccccc3)SSC3(S2)C2CC4CC(C2)CC3C4)cc1 (stereo unspecified)	> 100 µM
N#Cc1ccccc1NC(=O)/C(=N\Nc1ccc([N+](=O)[O-])cc1)C1C(=O)NC(=O)NC1=O	> 100 µM
CCCN=Cc1c(O)c(O)c(C(C)C)c2cc(C)c(-c3c(C)cc4c(C(C)C)c(O)c(O)c(C=NCCC)c4c3O)c(O)c12	> 100 µM

Each compound was assayed on PC-3 prostate (assay: NCI anticancer screen, dose series, 48 h).

SMILES	TGI
CCCN=Cc1c(O)c(O)c(C(C)C)c2cc(C)c(-c3c(C)cc4c(C(C)C)c(O)c(O)c(C=NCCC)c4c3O)c(O)c12	62.2 µM

The compounds below were run on RPMI-8226 leukemia (assay: NCI anticancer screen, dose series, 48 h).

SMILES	TGI
O=C(c1nc2ccc(Cl)cc2[nH]c1=O)C(O)c1ccccc1 (stereo unspecified)	> 100 µM
c1ccc(C2(c3ccccc3)SSC3(S2)C2CC4CC(C2)CC3C4)cc1 (stereo unspecified)	> 100 µM
N#Cc1ccccc1NC(=O)/C(=N\Nc1ccc([N+](=O)[O-])cc1)C1C(=O)NC(=O)NC1=O	> 100 µM
CCCN=Cc1c(O)c(O)c(C(C)C)c2cc(C)c(-c3c(C)cc4c(C(C)C)c(O)c(O)c(C=NCCC)c4c3O)c(O)c12	> 100 µM

Each compound was assayed on RXF 393 renal (assay: NCI anticancer screen, dose series, 48 h).

SMILES	TGI
COC1=C(OC)C(O)(c2ccccc2)C1=O (stereo unspecified)	> 100 µM
c1ccc(C2(c3ccccc3)SSC3(S2)C2CC4CC(C2)CC3C4)cc1 (stereo unspecified)	> 100 µM
N#Cc1ccccc1NC(=O)/C(=N\Nc1ccc([N+](=O)[O-])cc1)C1C(=O)NC(=O)NC1=O	> 100 µM
CCCN=Cc1c(O)c(O)c(C(C)C)c2cc(C)c(-c3c(C)cc4c(C(C)C)c(O)c(O)c(C=NCCC)c4c3O)c(O)c12	16.5 µM

The compounds below were run on SF-268 CNS (assay: NCI anticancer screen, dose series, 48 h).

SMILES	TGI
COC1=C(OC)C(O)(c2ccccc2)C1=O (stereo unspecified)	> 100 µM
O=C(c1nc2ccc(Cl)cc2[nH]c1=O)C(O)c1ccccc1 (stereo unspecified)	> 100 µM
c1ccc(C2(c3ccccc3)SSC3(S2)C2CC4CC(C2)CC3C4)cc1 (stereo unspecified)	> 100 µM
N#Cc1ccccc1NC(=O)/C(=N\Nc1ccc([N+](=O)[O-])cc1)C1C(=O)NC(=O)NC1=O	> 100 µM
CCCN=Cc1c(O)c(O)c(C(C)C)c2cc(C)c(-c3c(C)cc4c(C(C)C)c(O)c(O)c(C=NCCC)c4c3O)c(O)c12	> 100 µM

These compounds were tested on SF-295 CNS (assay: NCI anticancer screen, dose series, 48 h).

SMILES	TGI
COC1=C(OC)C(O)(c2ccccc2)C1=O (stereo unspecified)	> 100 µM
O=C(c1nc2ccc(Cl)cc2[nH]c1=O)C(O)c1ccccc1 (stereo unspecified)	> 100 µM
c1ccc(C2(c3ccccc3)SSC3(S2)C2CC4CC(C2)CC3C4)cc1 (stereo unspecified)	> 100 µM
CCCN=Cc1c(O)c(O)c(C(C)C)c2cc(C)c(-c3c(C)cc4c(C(C)C)c(O)c(O)c(C=NCCC)c4c3O)c(O)c12	> 24.7 µM

The compounds below were run on SF-539 CNS (assay: NCI anticancer screen, dose series, 48 h).

SMILES	TGI
O=C(c1nc2ccc(Cl)cc2[nH]c1=O)C(O)c1ccccc1 (stereo unspecified)	> 100 µM
c1ccc(C2(c3ccccc3)SSC3(S2)C2CC4CC(C2)CC3C4)cc1 (stereo unspecified)	> 100 µM
N#Cc1ccccc1NC(=O)/C(=N\Nc1ccc([N+](=O)[O-])cc1)C1C(=O)NC(=O)NC1=O	> 100 µM
CCCN=Cc1c(O)c(O)c(C(C)C)c2cc(C)c(-c3c(C)cc4c(C(C)C)c(O)c(O)c(C=NCCC)c4c3O)c(O)c12	> 28.8 µM

The compounds below were run on SK-MEL-2 melanoma (assay: NCI anticancer screen, dose series, 48 h).

SMILES	TGI
O=C(c1nc2ccc(Cl)cc2[nH]c1=O)C(O)c1ccccc1 (stereo unspecified)	> 100 µM
c1ccc(C2(c3ccccc3)SSC3(S2)C2CC4CC(C2)CC3C4)cc1 (stereo unspecified)	> 100 µM
N#Cc1ccccc1NC(=O)/C(=N\Nc1ccc([N+](=O)[O-])cc1)C1C(=O)NC(=O)NC1=O	> 100 µM
